Experiment [1] concerns ERK. The experiment is described as follows: Western blotting of EGF-induced ERK activity in HEK293T. It counts as cell-based. The following applies: with 100 μg/ml of EGF, FIG. 3D. The protocol: In the same manner, in a sample of HEK293T (Kidney epithelial cell) cell line treated with pachastrissamine and 100 μg/ml of EGF (epidermal growth factor), ERK activity was determined (see FIG. 3D).

Another experiment has as its system HaCaT cell. The experiment is described as follows: Phase-contrast microscope morphology analysis of surviving cells. The format is cell-based, human. Conditions: HaCaT, 24 hours. The protocol: HaCaT, B16F10 and A375 cell lines were cultured in the same manner as described in Example 1. The cultured HaCaT cell line was plated onto a 60 mm plate at a concentration of 5×10^4 cells/well, and cultured in a CO2 incubator (37° C., 5%) for 24 hours. The cultured respective cells were divided into 4 groups. One group was added with only pachastrissamine (PA) at a concentration of 10 μg/ml; another group was added with lithium chloride (apoptosis inhibiting material) (at a final concentration of 300 nM) as well as pachastrissamine at a concentration of 10 μg/ml (PA+Li); and a third group was added with only lithium chloride (Li). The last group was a negative control group (Con) and was added with nothing. These groups were cultured in a CO2 incubator (37° C., 5%) for 24 hours, and then the number of cells were measured in the same manner as described in Example 2-2.
The four groups of HaCaT cell samples were washed with PBS, and then surviving cells were subjected to morphology analysis through a phase-contrast microscope (see FIG. 2f).

Experiment [2] relates to FoxO3a. The experiment is described as follows: FoxO3a immunoprecipitation and ubiquitin western blotting in HEK293T. The format is cell-based. Conditions: pachastrissamine and EGF. As to the method:
Then, immunoprecipitation was carried out using FoxO3a antibody. The sample obtained from immunoprecipitation was subjected to western blotting by using ubiquitin antibody so as to carry out comparative analysis.
For orientation: In western blotting, separated proteins are transferred to a membrane and probed.

In experiment [3] the test system is ERK. The experiment is described as follows: Western blotting of ERK activity (pERK) in HaCaT. The following applies: pachastrissamine 10 μg/ml, U0126 20 nM, 30 minutes, FIG. 3C. The format is cell-based, human. The protocol:
A HaCaT cell line was cultured in the same manner as described in Example 1. […] The last group was a negative control group (−) and was added with nothing.

The test system of the next experiment is AKT. The experiment is described as follows: Western blotting of AKT phosphorylation. Conditions: HaCaT, B16F10, A375, 10 μg/ml pachastrissamine, FIGS. 3A, 3B. The format is cell-based. As to the method: HaCaT, B16F10 and A375 cell lines were cultured in the same manner as described in Example 1. […] 30 minutes later, and 60 minutes later, each of the cell lines was resuspended in RIPA buffer [12 mM EDTA, 137 mM NaCl, 20 mM Tris-HCl (pH 8.0), 1 mM Na3VO4 (Sigma-Aldrich, USA) 10 mM NaF (Sigma), 1 mM PMSF (Sigma), 1% Triton X-100, 10% glycerol, protease inhibiting cocktail (Roche, Germany)], and then put on ice for 30 minutes so that the cells can be completely lysed. The lysate was centrifuged at 14000 rpm for 30 minutes, and the supernatant was collected. A BCA protein analysis kit (Pierce, Rockford, Ill.) was used to determine the concentration of each sample, and the sample was subjected to electrophoresis (SDS-PAGE). Western blotting was carried out on the protein isolated by the electrophoresis. After electrophoresis of the sample, the protein was transferred to a polyvinylidene fluoride membrane (Pall Corporation). Then, after blocking the membrane at room temperature for one hour using 5% BSA solution (Amresco, USA), it was treated with primary antibodies and reaction was carried out for 12 hours at 4° C. The primary antibodies were AKT antibody and Actin antibody (Cell Signaling Technology, Beverly, Mass.), which are antibodies associated in cell proliferation-related signaling. After reaction with primary antibodies, it was washed for about 30 minutes and further reacted for 1 hour at room temperature by treating with HRP-conjugated secondary antibodies. Then, after washing sufficiently for over 30 minutes, protein was identified using an ECL detection kit (intron Biotechnology).

A further experiment has as its system A375 cell line. The experiment is described as follows: Cell counting by hemocytometer, trypan blue exclusion, A375. The format is cell-based. The following applies: 24 hours. The protocol:
A HaCaT cell line was cultured in the same manner as described in Example 1. The cultured HaCaT cell line was plated onto a 60 mm plate at a concentration of 5×10^4 cells/well, and cultured in a CO2 incubator (37° C., 5%) for 24 hours. The cultured cells in respective plates were treated with pachastrissamine at a concentration of 10 μg/ml, and cultured in a CO2 incubator (37° C., 5%) for 24, 36, and 48 hours, respectively. After the culturing, the cells were washed with PBS, treated with trypsin-EDTA, and completely detached from the plate. Then, a hemocytometer was used to count the cells through trypan blue exclusion.
HaCaT, B16F10 and A375 cell lines were cultured in the same manner as described in Example 1. The cultured HaCaT cell line was plated onto a 60 mm plate at a concentration of 5×10^4 cells/well, and cultured in a CO2 incubator (37° C., 5%) for 24 hours. The cultured respective cells were divided into 4 groups. […] These groups were cultured in a CO2 incubator (37° C., 5%) for 24 hours, and then the number of cells were measured in the same manner as described in Example 2-2.

Experiment [4] relates to FoxO3a. The experiment is described as follows: Western blotting of FoxO3a protein expression in HaCaT. It counts as cell-based, human. The protocol:
A HaCaT cell line was cultured in the same manner as described in Example 1. […] Then, western blotting was carried out by using FoxO3a antibody as a primary antibody.
Then, western blotting was carried out by using FoxO3a antibody as a primary antibody so as to carry out comparative analysis on the level of protein expression.

For another experiment, the system named is MEK. The experiment is described as follows: Western blotting of MEK activity (caMEK or N-Ras/H-Ras over-expression) in HaCaT. The format is cell-based, human. Conditions: HaCaT with caMEK or N-Ras/H-Ras over-expression; FIGS. 3E, 3F. As to the method: In the same manner, MEK(caMEK) continuously activated in the HaCaT cell line was over-expressed so as to activate ERK in a lower signaling pathway of MEK. The HaCaT cell line whose ERK was activated by MEK was treated with pachastrissamine and U0126 and PD98059 (ERK inhibitors). Then, western blotting was carried out using anti-pMEK, anti-MEK, anti-pEKR, anti-EKR, and anti-actin antibodies so as to carry out comparative analysis (see FIG. 3E).
Further, in the same manner, two DNAs of N-Ras and H-Ras, in a previous step of MEK/ERK signal transduction, were over-expressed through transfection while a HaCaT cell line was cultured. Then, after treatment with pachastrissamine and phytosphingosine, western blotting was carried out using anti-pMEK, and anti-MEK antibodies so as to carry out comparative analysis of MEK activity (see FIG. 3F).

Molecules are shown by their SMILES. Entries after “also recorded” stand apart in the source; their conditions may differ.

For the compound `CCCCCCCCCCCCCC[C@@H]1OC[C@H](N)[C@@H]1O` [pachastrissamine], the “ERK activity caused by EGF” value in the experiment with ERK [1] is reported as “almost perfectly inhibit the ERK activity caused by EGF”. Besides, the “number of surviving cells compared to negative control group” value with HaCaT cell (10 μg/ml, phase-contrast microscope, FIG. 2f) is reported as “the number of surviving cells was significantly reduced”. Further, the “cell division extent increased by lithium chloride, effect of pachastrissamine” value with HaCaT cell (pachastrissamine 10 μg/ml + lithium chloride 300 nM) is “inhibited”. Also, the “ubiquitination degree of FoxO3a increased by EGF” value in the experiment with FoxO3a [2] is given as “decreased”. Also, the “ERK activation (phosphorylation of ERK)” value with ERK [3] is reported as “almost completely inhibited the phosphorylation of ERK; also recorded: reduction of ERK activation”. The “phosphorylation of AKT after 30 minutes” value in the experiment on AKT (5 μg/ml phytosphingosine, 30 minutes) is “reduction of phosphorylation of AKT”. Besides, in the experiment with AKT (60 minutes), the “degree of AKT phosphorylation after 60 minutes” value is on record as “increased”. Also, the “number of cells compared to no treatment” value with A375 cell line (10 μg/ml, FIGS. 2C, 2D) was “the number of cells was decreased”. Besides, the “number of cells with lithium chloride as well as pachastrissamine, compared to only pachastrissamine” value with A375 cell line (pachastrissamine 10 μg/ml + lithium chloride 300 nM (PA+Li)) is “the number of cells was higher”. Besides, the “protein expression level of FoxO3a compared to control group” value in the experiment on FoxO3a [4] (5 and 10 μg/ml, 24 hours, FIG. 4A) is on record as “increased”. For the same compound, the “extent of protein expression of FoxO3a, pachastrissamine and PD98059 together” value in the experiment with FoxO3a [4] (pachastrissamine together with PD98059, versus each single material, FIG. 4E) was “it was not found that the extent of protein expression was increased”. Besides, the “extent of protein expression of FoxO3a, pachastrissamine and U0126 together” value in the experiment on FoxO3a [4] (pachastrissamine together with U0126, versus each single material, FIG. 4E) is on record as “significantly increased compared to other samples treated with each single material”. Further, the “level of protein expression of FoxO3a, single material” value with FoxO3a [4] (treated as in Example 3-2, compared to negative control, FIG. 4E) was “the amount of FoxO3a protein was increased”. Moreover, the “MEK activity (upper signal of ERK)” value in the experiment on MEK is given as “inhibition effect on MEK”.

Source of the values: US8609718B2, “Pharmaceutical composition used in treatment of hyperproliferative skin conditions and malignant melanomas comprising pachastrissamine as active ingredient” (Catholic University Industry Academy Cooperation Foundation, priority 2009, dated 2013).
